Here are results for 2 compounds from patent publication US9463213B2, “Use of degarelix in the treatment of endometriosis and related diseases” (priority 2012, dated 2016).

The subject of assay [1] is women with recurrent endometriosis after surgery. Put plainly: Example 1: clinical comparison of single-dose degarelix with monthly leuprolide acetate in recurrent endometriosis. The following applies: for Disappearance of pain: degarelix acetate 80 mg single s.c. injection vs leuprolide acetate 3.75 mg s.c. monthly, 15 patients per group; for Disappearance of symptoms at the end of treatment / Recurrence six months after the end of treatment / CA-125 after 2 months / CA-125 at the end of treatment: degarelix acetate 80 mg single s.c. vs leuprolide acetate 3.75 mg s.c. monthly; for CA-125 after 2 months / CA-125 at the end of treatment: plasma. In kind it is in vivo. How it is done: In this experiment the use of degarelix was studied, administered in a dose of 80 mg in a single infusion, with an effect which lasted for at least 4 months (period of amenorrhea and hypoestrogenism), comparing this with the effect of treatment with leuprolide acetate GnRH-agonist administered in a dose of 3.75 mg per month for at least 6 months in women with recurrent endometriosis after surgery and post-surgery treatment with estro-progestins. 30 women divided into two groups of 15 patients each, with recurrent endometriosis after previous surgery for endometriotic cysts, in whom new ovarian cysts, pelvic pain and a rise in plasma CA125 values occurred, were included in the study. One group of patients was treated with 80 mg degarelix acetate in a single subcutaneous injection (Firmagon 80 mg, company Ferring) on the first day of the menstrual cycle, while the other group was treated with leuprolide acetate (Enantone 3.75, Takeda) in a dose of 3.75 mg subcutaneously every month for four months. Both the groups were monitored for FSH, LH, estradiol, androstenedione, dehydroandrostenedione (DEA) and CA125, with plasma doses every fifteen days starting from the day following administration of the drug. Pelvic pain levels experienced by the patients during treatment and during the six months following suspension of the treatment were also evaluated using a “Visual Analogue Scale” (VAS) in which the patient expressed the level of pain experienced on a 10 cm scale.

In assay [2] the test system is patients suffering from endometriosis with bilateral ovarian cysts. Put plainly: Example 2: degarelix before assisted reproduction in patients with bilateral endometriotic ovarian cysts. In kind it is in vivo. How it is done: In this experiment, 12 patients suffering from endometriosis with the presence of bilateral ovarian cysts who wished to receive a cycle of assisted reproduction underwent, prior to undergoing controlled ovarian hyperstimulation, treatment with 80 mg degarelix acetate in a single administration 4 months before the assisted reproduction cycle, in order to evaluate the efficacy of this treatment on the reduction and/or disappearance of the ovarian cysts without performing surgery. 12 patients with bilateral endometriotic cysts (cysts larger than 3 cm) and high plasma CA125 (over 60 IU/ml) were selected. 80 mg degarelix acetate (Firmagon 80 mg) was injected into the patients on the first day of the cycle and the patients were then monitored for FSH, LH and estradiol values every 20 days, with an echography check to evaluate the dimensions of the cysts.

The test system of assay [3] is healthy women volunteers. The following applies: injection of 2.5 mg; cited from earlier work.
Assay [4] has as its system patients with severe endometriosis. The following applies: 80 mg monthly for three months; cited from earlier work.
Setting [5] is: 80 mg single dose vs leuprolide acetate, P<0.01.

For `CCNC(=O)[C@@H]1CCCN1C(=O)[C@H](CCCNC(=N)N)NC(=O)[C@H](CC(C)C)NC(=O)[C@@H](CC(C)C)NC(=O)[C@H](Cc1ccc(O)cc1)NC(=O)[C@H](CO)NC(=O)[C@H](Cc1c[nH]c2ccccc12)NC(=O)[C@H](Cc1c[nH]cn1)NC(=O)[C@@H]1CCC(=O)N1` [Leuprolide acetate, leuprolide acetate], in assay [1], the Disappearance of pain amounted to 3.8 ± 0.8, the “Disappearance of symptoms at the end of treatment” value is 60.0%, the “Recurrence six months after the end of treatment” value is reported as 33.3% and the “CA-125 after 2 months” value amounted to 52.6 ± 31.5. The “CA-125 at the end of treatment” value in assay [1] is 34.0 ± 12.7.
For degarelix acetate, the “Duration of effect (period of amenorrhea and hypoestrogenism)” value in assay [1] (80 mg in a single infusion) is recorded as “at least 4 months”. For the same compound, the “Control of painful symptoms (VAS) compared with GnRH agonist (FIG. 5)” value in assay [1] (80 mg single dose vs leuprolide acetate) is given as “better control of painful symptoms”. Besides, in assay [1] (setting [5]), the “Estradiol and androgen levels compared with GnRH agonist (FIGS. 2-4)” value was “lower levels of estradiol”; the “Suppression of LH and FSH compared with GnRH agonist (FIG. 1)” value was “More rapid and stable suppression of LH and FSH”. For the same compound, in assay [1], the Disappearance of pain was 1.4 ± 0.3, the “Disappearance of symptoms at the end of treatment” value is 93.3%, the “Recurrence six months after the end of treatment” value stood at 6.6% and the “CA-125 after 2 months” value is listed as 32.4 ± 21.4. Moreover, the “CA-125 at the end of treatment” value in assay [1] was 12.6 ± 10.1. Further, the “Duration of stable suppression of FSH, LH, estradiol and androgen levels” value in assay [1] (single administration of 80 mg) is recorded as 4 months. Further, the “Volume of the endometriotic cysts” value in assay [2] (80 mg single administration, 3 months after treatment, echography) is listed as “decreased significantly”. In assay [2] (80 mg single administration, 12 patients), the “Levels of FSH, LH and estradiol 3 months after treatment (FIG. 6)” value was “low levels”. In addition, the “Patients with complete disappearance of endometriotic cysts” value in assay [2] (80 mg single administration, of 12 patients) is reported as “at least 4 patients”. The same compound had a Pregnancy achieved in assay [2] (after 80 mg single administration and assisted reproduction cycle, of 12 patients) of 5 cases. For the same compound, in assay [2] (after 80 mg single administration, all patients), the “Recurrence of endometriotic cysts during ovarian stimulation with oocyte sampling” value was “without showing any recurrence of endometriotic cysts”. Besides, in assay [3], the “Effect on LH and FSH release” value was “immediate suppression of LH and FSH release”; the “Time required for LH and FSH to return to base levels” value is “approximately 7 days”. The “Effect on pain and endometriosis recurrence” value in assay [4] is “reduction of pain and endometriosis recurrence”.
